CC(C)NC(=O)c1c(I)cccc1C(=O)Nc1ccc(OCC(F)(F)F)nc1 [Compound 1, 3-iodo-N^2-(1-methylethyl)-N^1-[6-(2,2,2-trifluoroethoxy)-3-pyridinyl]-1,2-benzenedicarboxamide] gave a melting point of 220 to 225 °C.

— US20040063738A1, “Substituted heterocyclic phthalic acid diamide arthropodicides” (priority 2003, published 2004)
